Here are results for one compound from patent US20040097577A1 (priority 2001, published 2004).

The subject of data set [1] is patients in the age ranging from 6 to 14 years. In words: pilot study, effect of melatonin on sleep latency (sleep logs, CGI), melatonin versus placebo. Type of data set: in vivo, human. The protocol:
In a pilot study, nine patients in the age ranging from 6 to 14 years were run through a protocol to determine feasibility. A sample of four sleep logs, illustrating response at each of the protocol was determined. […] Patients tolerated the protocol, and parents were able to reliably complete the sleep logs. Some parents had to be trained to do so over several visits. Parents whose children fell asleep extremely late, could not tolerate staying up to find out when they actually fell asleep, and had to be excluded.

The next data set has as its system children. As to conditions: cited from earlier work.
Data set [2] has as its system children, most of whom were neurologically multiply disabled. As to conditions: 2 to 10 mg of oral melatonin at bedtime; cited from earlier work.

As for `COc1ccc2[nH]cc(CCNC(C)=O)c2c1` [melatonin, N-acetyl-5-methoxytryptamine], the CGI data entry in data set [1] (melatonin versus placebo) was “not significant”. The “difference in response between the melatonin and placebo” value in data set [1] (nine patients, sleep logs, with sleep hygiene) was “significant difference in response (p=0.03)”. In addition, the “adverse effects on long-term use” value with children (children who received melatonin for several years) is listed as “without adverse effects”. For the same compound, the “average onset of sleep after melatonin administration” value with children (children, 2.5 to 7.5 mg PO once daily before expected bedtime) is at most 1 h. For the same compound, in data set [2], the adverse side-effects entry is listed as “no adverse side-effects”; the “health, behavioural and social benefits” value is listed as “significant”.
